Experiments:
recombinant SGT2 = test: in vitro solanidine glycosyltransferase assay of recombinant SGT2 with Solanaceous aglycones and UDP-[3H]sugar donors; conditions: for SGT2 galactosyltransferase activity with aglycone substrate: UDP-[3H]galactose as sugar donor, activity threshold 2-fold the reaction blank; for SGT2 glucosyltransferase activity with aglycone substrate: UDP-[3H]glucose as sugar donor, 60 min, 37° C., SGAs and UDP-sugars 33 μM
SGT2 = type: biochemical, Solanum tuberosum; conditions: 1,000 μM inhibitor
Colorado potato beetle = conditions: artificial diets; Kowalski et al. 1999; cited from earlier work

SMILES	SGT2 galactosyltransferase activity with aglycone substrate (recombinant SGT2)	SGT2 glucosyltransferase activity with aglycone substrate (recombinant SGT2)	inhibition of SGT2 activity (SGT2) [%]	toxicity to the Colorado potato beetle (Colorado potato beetle)	inhibition of SGT2 activity (in words) (SGT2)
C[C@@H]1CC[C@@]2(NC1)O[C@H]1C[C@H]3[C@@H]4CC=C5C[C@@H](O)CC[C@]5(C)[C@H]4CC[C@]3(C)[C@H]1[C@@H]2C [solasodine]	No activity	readily capable of utilizing UDP-glucose as a substrate	–	–	–
C[C@H]1CC[C@@H]2[C@@H](C)[C@H]3[C@H](C[C@H]4[C@@H]5CC=C6C[C@@H](O)CC[C@]6(C)[C@H]5CC[C@]34C)N2C1 [solanidine]	No activity	maximum activity	–	–	–
C[C@H]1CC[C@@H]2[C@@H](C)[C@H]3[C@H](C[C@H]4[C@@H]5CC=C6C[C@@H](O[C@@H]7O[C@H](CO)[C@H](O)[C@H](O[C@@H]8O[C@H](CO)[C@@H](O)[C@H](O)[C@H]8O)[C@H]7O[C@@H]7O[C@@H](C)[C@H](O)[C@@H](O)[C@H]7O)CC[C@]6(C)[C@H]5CC[C@]34C)N2C1 [α-solanine]	–	–	39	more toxic	–
C[C@H]1CC[C@]2(NC1)O[C@H]1C[C@H]3[C@@H]4CC[C@H]5C[C@@H](O)CC[C@]5(C)[C@H]4CC[C@]3(C)[C@H]1[C@@H]2C [tomatidine]	No activity	readily capable of utilizing UDP-glucose as a substrate	–	–	–
C[C@H]1CC[C@@H]2[C@@H](C)[C@H]3[C@H](C[C@H]4[C@@H]5CC=C6C[C@@H](O[C@@H]7O[C@H](CO)[C@H](O[C@@H]8O[C@@H](C)[C@H](O)[C@@H](O)[C@H]8O)[C@H](O)[C@@H]7O[C@@H]7O[C@@H](C)[C@@H](O)[C@@H](O)[C@H]7O)CC[C@]6(C)[C@H]5CC[C@]34C)N2C1 [α-chaconine]	–	–	–	–	completely inhibited
